The text below walks through data of patent publication US4550078A, “Method for the quantitative determination of individual polyamine components in a mixture” (Amano Seiyaku Kabushiki Kaisha, priority 1982, dated 1985).

Like-named read-outs stand apart in the source and are kept apart here.

Assay [1] deals with T1, putrescine oxidase (Kocuria rosea, UniProt P40974).
T1 sequence (P40974 1-478): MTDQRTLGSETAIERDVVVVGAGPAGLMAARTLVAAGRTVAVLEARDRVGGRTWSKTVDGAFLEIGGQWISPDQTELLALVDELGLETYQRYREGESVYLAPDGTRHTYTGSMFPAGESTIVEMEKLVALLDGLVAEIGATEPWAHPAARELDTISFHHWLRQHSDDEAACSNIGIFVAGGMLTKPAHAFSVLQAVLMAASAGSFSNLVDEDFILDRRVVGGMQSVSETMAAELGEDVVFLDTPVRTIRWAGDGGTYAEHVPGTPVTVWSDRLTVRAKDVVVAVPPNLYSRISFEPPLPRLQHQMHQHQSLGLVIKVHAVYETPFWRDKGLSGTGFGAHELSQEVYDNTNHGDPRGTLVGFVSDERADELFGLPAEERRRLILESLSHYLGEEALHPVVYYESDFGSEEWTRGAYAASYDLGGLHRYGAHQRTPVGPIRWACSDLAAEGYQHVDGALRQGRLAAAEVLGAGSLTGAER
The conditions noted are these: cited from earlier work.

Assay [2] concerns polyamine oxidase PC-3 followed by acetylputrescine oxidase. Put plainly: Two-step reaction: polyamine oxidase PC-3, then acetylputrescine oxidase. It is filed as biochemical.
For assay [3], the system named is polyamine oxidase PC-3. Description: Enzymatic oxidative decomposition by polyamine oxidase PC-3, colorimetric determination of hydrogen peroxide. Format: biochemical. The conditions noted are these: for Activity of the enzyme on the substrate: N8-acetylspermidine only if the concentration of the enzyme is relatively high; for H2O2 formed: substrates marked * only with a relatively high concentration of the enzyme, -- = no activity; for hydrogen peroxide produced per mole of the substrate / time to completion of the reaction: pH 5.5, 35° C., about 0.05 unit of enzyme (about 15 units for N8-acetylspermidine).

Assay [4] has as its system polyamine oxidase PC-3. The conditions noted are these: cited from earlier work.
Assay [5] concerns the target T1, putrescine oxidase. Description: Enzymatic oxidative decomposition by putrescine oxidase, colorimetric determination of hydrogen peroxide. Format: biochemical. The conditions noted are these: for H2O2 formed: Table 1, -- = no activity; for hydrogen peroxide produced per mole of the substrate / time to completion of the reaction: borate buffer pH 8.5, 35° C., about 0.5 unit of enzyme.

Assay [6] relates to polyamine oxidase AT-1. Put plainly: Enzymatic oxidative decomposition by polyamine oxidase AT-1, colorimetric determination of hydrogen peroxide. Format: biochemical. The conditions noted are these: for putrescine formed / H2O2 formed: Table 1, substrates marked * only with a relatively high concentration of the enzyme; for H2O2 formed: -- = no activity; for hydrogen peroxide produced per mole of the substrate / time to completion of the reaction: pH 6.5, 35° C., 0.05 unit of enzyme (2 units for acetylspermine); for Activity of the enzyme on the substrate: spermine and spermidine at low enzyme concentration, acetylspermine and N1-acetylspermidine when the concentration of the enzyme is increased.

In assay [7] the test system is polyamine oxidase PC-3 followed by putrescine oxidase. Description: Two-step reaction: polyamine oxidase PC-3, then putrescine oxidase. It is filed as biochemical. The conditions noted are these: for absorbance after the first step / increment of absorbance in the second step / absorbance after the second step: 505 nm; for absorbance after the first step: PC-3 about 0.05 unit, acetate buffer pH 5.0; for increment of absorbance in the second step: after addition of putrescine oxidase; for absorbance after the second step: putrescine oxidase about 0.5 unit, pH 8-8.5, 5 minutes; for hydrogen peroxide produced per mole of the substrate in the first step: polyamine oxidase PC-3; for hydrogen peroxide produced per mole of the substrate in the second step: putrescine oxidase.

In assay [8] the test system is polyamine oxidase AT-1. The conditions noted are these: cited from earlier work.
Assay [9] deals with polyamine oxidase AT-1 followed by putrescine oxidase. Put plainly: Two-step reaction: polyamine oxidase AT-1, then putrescine oxidase. Format: biochemical. The conditions noted are these: for absorbance after the first step / increment of absorbance in the second step / absorbance after the second step: 505 nm; for absorbance after the first step: AT-1 0.05 unit (about 5 units for acetylspermine and N1-acetylspermidine), 0.5 ml of 400 μM substrate in 2.5 ml; for increment of absorbance in the second step: after addition of putrescine oxidase; for absorbance after the second step: putrescine oxidase 0.5 unit, pH 8-9, 5 minutes; for hydrogen peroxide produced per mole of the substrate in the first step: polyamine oxidase AT-1; for hydrogen peroxide produced in the second step: putrescine oxidase acting on the putrescine produced in the first step.

`NCCCN` [1,3-diaminopropane]: the Substrate specificity result on putrescine oxidase [1] is “inactive”.

With `CC(=O)NCCCCNCCCN` [N^8 -acetylspermidine], the “absorbance after the first step” value in [2] (505 nm, PC-3 about 15 units, pH 5.5, 0.5 ml of 400 μM substrate in 2.5 ml) turned out to be 0.500. The “absorbance after the second step” value in assay [2] (505 nm, acetylputrescine oxidase about 0.5 unit, pH about 7.5, about 10 minutes) turned out to be 1.000. The “increment of absorbance in the second step” value (shortened to “increment of absorbance”) in assay [2] (505 nm, after addition of acetylputrescine oxidase) was found to be 0.500. Moreover, the “hydrogen peroxide produced per mole of the substrate in the second step” value in assay [2] (acetylputrescine oxidase) was found to be 1 mol. For the same molecule, the “hydrogen peroxide produced per mole of the substrate in the first step” value in [2] (polyamine oxidase PC-3) worked out at 1 mol. Besides, in the assay with polyamine oxidase PC-3 [3], the “Activity of the enzyme on the substrate” value is listed as “active”, the “hydrogen peroxide produced per mole of the substrate” value amounted to 1 mol and the “time to completion of the reaction” value is at most 10 min. The acetylputrescine formed with polyamine oxidase PC-3 [3] (Table 1, relatively high concentration of the enzyme) is 1 moles per mole of the substrat. The H2O2 formed with polyamine oxidase PC-3 [3] (Table 1) is recorded as 1 moles per mole of the substrat.

For `O=C(O)c1cc[c]([Hg][Cl])cc1` [PCMB], in the assay on polyamine oxidase PC-3 [4] (spermine as the substrate), the Inhibitors result is “inhibition”.

For the molecule `O=C(O)CI` [monoiodoacetic acid], the Inhibitors result with polyamine oxidase PC-3 [4] is on record as “inhibition”.

Take `NCCCCN` [putrescine]: at putrescine oxidase [1], the “Enzymatic activity: products per mole of the substrate” value (shortened to “Enzymatic activity: products per mole”) is “each 1 mole of 4-aminobutanal, hydrogen peroxide and ammonia”; the Substrate specificity result is reported as “active”. Moreover, on putrescine oxidase [5], the H2O2 formed is on record as 1 moles per mole of the substrat, the “hydrogen peroxide produced per mole of the substrate” value came to 1 mol and the “time to completion of the reaction” value is at most 5 min.

Consider `NCCCCNCCCN` [spermidine], for which, at putrescine oxidase [1], the “Enzymatic activity: products per mole” value was “each 1 mole of 1,3-diaminopropane, 4-aminobutanal and hydrogen peroxide”; the Substrate specificity entry is on record as “active”. Also, in the assay with polyamine oxidase AT-1 [6], the putrescine formed is 1 moles per mole of the substrat, the H2O2 formed is listed as 1 moles per mole of the substrat, the “hydrogen peroxide produced per mole of the substrate” value worked out at 1 mol and the “time to completion of the reaction” value was at most 5 min. Also, in the assay with polyamine oxidase AT-1 [6], the “Activity of the enzyme on the substrate” value is “active”. In assay [7], the “absorbance after the first step” value came to 0.50, the “increment of absorbance” value turned out to be 0.50, the “absorbance after the second step” value was determined as 1.00 and the “hydrogen peroxide produced per mole of the substrate in the first step” value was determined as 1 mol. For the same molecule, the “hydrogen peroxide produced per mole of the substrate in the second step” value in [7] amounted to 1 mol. In the assay with polyamine oxidase PC-3 [4] (polyamine oxidase PC-3), the “Enzymatic activity: products per mole” value was “each 1 mole of putrescine, 3-aminopropanaland hydrogen peroxide” and the Substrate specificity result is recorded as “active”. In the assay with polyamine oxidase PC-3 [3], the “Activity of the enzyme on the substrate” value is on record as “active”, the “hydrogen peroxide produced per mole of the substrate” value was determined as 1 mol and the “time to completion of the reaction” value is at most 10 min. Also, in the assay on polyamine oxidase PC-3 [3] (Table 1), the putrescine formed is reported as 1 moles per mole of the substrat and the H2O2 formed is recorded as 1 moles per mole of the substrat. Moreover, the Substrate specificity result with polyamine oxidase AT-1 [8] (oxidation with formation of hydrogen peroxide) is “active”. In the assay on polyamine oxidase AT-1 [8] (polyamine oxidase AT-1), the “Enzymatic activity: products per mole” value is “each 1 mole of putrescine, 3-aminopropanal and hydrogen peroxide”. At putrescine oxidase [5], the H2O2 formed is reported as 1 moles per mole of the substrat, the “hydrogen peroxide produced per mole of the substrate” value is 1 mol and the “time to completion of the reaction” value was at most 10 min. In assay [9], the “absorbance after the first step” value stood at 0.50, the “increment of absorbance” value stood at 0.50, the “absorbance after the second step” value is reported as 1.00 and the “hydrogen peroxide produced per mole of the substrate in the first step” value came out at 1 mol. The “hydrogen peroxide produced in the second step” value in [9] amounted to 1 mol.

As to `NCCCNCCCCNCCCN` [spermine], the Substrate specificity entry on putrescine oxidase [1] is “inactive”. In the assay on polyamine oxidase AT-1 [6] (505 nm, 0.5 ml of 400 μM substrate in 2.5 ml, pH 6.5, 35° C., 0.05 unit of enzyme), the “absorbance at completion of the reaction” value is recorded as 1.00. In the assay on polyamine oxidase AT-1 [6], the putrescine formed is 1 moles per mole of the substrat, the H2O2 formed is 2 moles per mole of the substrat, the “hydrogen peroxide produced per mole of the substrate” value came out at 2 mol and the “time to completion of the reaction” value is at most 5 min. In the assay on polyamine oxidase AT-1 [6], the “Activity of the enzyme on the substrate” value is recorded as “active”. Also, in assay [7], the “absorbance after the first step” value is reported as 1.00, the “increment of absorbance” value turned out to be 0.50, the “absorbance after the second step” value turned out to be 1.50 and the “hydrogen peroxide produced per mole of the substrate in the first step” value is 2 mol. For the same molecule, in [7], the “hydrogen peroxide produced per mole of the substrate in the second step” value turned out to be 1 mol. Moreover, in the assay on polyamine oxidase PC-3 [4], the “Enzymatic activity: products per mole” value is 1 mole of putrescine and each 2 moles of 3-aminopropanal and hydrogen peroxide; the Substrate specificity result is recorded as “active”. Besides, in the assay with polyamine oxidase PC-3 [3], the “Activity of the enzyme on the substrate” value is given as “active”, the “hydrogen peroxide produced per mole of the substrate” value came to 2 mol and the “time to completion of the reaction” value is at most 5 min. Further, in the assay on polyamine oxidase PC-3 [3] (Table 1), the putrescine formed is recorded as 1 moles per mole of the substrat and the H2O2 formed is listed as 2 moles per mole of the substrat. Moreover, in the assay on polyamine oxidase AT-1 [8], the “Enzymatic activity: products per mole” value was 1 mole of putrescine and each 2 moles of 3-aminopropanal and hydrogen peroxide; the Substrate specificity entry was “active”. For the same molecule, in assay [9], the “absorbance after the first step” value is reported as 1.00, the “increment of absorbance” value worked out at 0.50, the “absorbance after the second step” value is 1.50 and the “hydrogen peroxide produced per mole of the substrate in the first step” value came to 2 mol. Further, the “hydrogen peroxide produced in the second step” value in [9] stood at 1 mol.

Take silver: the Inhibitors result in the assay with polyamine oxidase PC-3 [4] (spermidine as the substrate) was “inhibition”; in the assay on polyamine oxidase PC-3 [4] (spermine as the substrate), “inhibition”; in the assay on polyamine oxidase AT-1 [8] (polyamine oxidase AT-1) it was “strong inhibition”.
